Experimental data as given in the kinase profiling compilation of Christmann-Franck et al. (2016).
Blank lines part the entries; values can stand above or below the compound they belong to.

Tests used:
Assay in all cases: radiometric filter-binding kinase assay
[1] = biological target: TTK (human) (UniProt P33981)
[2] = biological target: PAK4 (human) (UniProt O96013)
[3] = biological target: MAPK8 (human) (UniProt P45983)
[4] = biological target: IKBKB (human) (UniProt O14920)
[5] = biological target: MYLK (human) (UniProt Q15746)
[6] = biological target: TAOK1 (human) (UniProt Q7L7X3)
[7] = biological target: EPHB1 (human) (UniProt P54762)
[8] = biological target: NUAK1 (human) (UniProt O60285)
[9] = biological target: MINK1 (human) (UniProt Q8N4C8)
[10] = system: ROCK2 (rat); details: accession and sequence are those of the human protein
[11] = biological target: EPHA2 (human) (UniProt P29317)
[12] = system: LCK (mouse); details: accession and sequence are those of the human protein
[13] = biological target: GCK (human) (UniProt Q12851)
[14] = biological target: EPHA4 (human) (UniProt P54764)
[15] = biological target: PAK6 (human) (UniProt Q9NQU5)
[16] = biological target: MAP3K11 (human) (UniProt Q16584)
[17] = biological target: PKN2 (human) (UniProt Q16513)
[18] = biological target: MAP2K1 (human) (UniProt Q02750)
[19] = biological target: CSK (human) (UniProt P41240)
[20] = system: PAK2 (human), Q13177 [T402E]
[21] = biological target: EPHB3 (human) (UniProt P54753)
[22] = biological target: CaMK1 (human) (UniProt Q14012)
[23] = system: AKT1 (human), P31749 [S473D]
[24] = biological target: AURKB (human) (UniProt Q96GD4)
[25] = biological target: EPHB2 (human) (UniProt P29323)
[26] = biological target: MAP3K7 TAB1 (human) (UniProt Q15750+O43318)
[27] = biological target: MST4 (human) (UniProt Q9P289)
[28] = biological target: MARK2 (human) (UniProt Q7KZI7)
[29] = biological target: MAPK10 (human) (UniProt P53779)
[30] = biological target: RPS6KA3 KD1 KD2 (human) (UniProt P51812)
[31] = biological target: CDK2 CCNA2 (human) (UniProt P20248+P24941)
[32] = biological target: SRC (human) (UniProt P12931)
[33] = biological target: CHEK1 (human) (UniProt O14757)
[34] = biological target: DYRK3 (human) (UniProt O43781)
[35] = biological target: CHEK2 (human) (UniProt O96017)
[36] = biological target: TBK1 (human) (UniProt Q9UHD2)
Sequence of TBK1 (human) (Q9UHD2 whole entry, looked up): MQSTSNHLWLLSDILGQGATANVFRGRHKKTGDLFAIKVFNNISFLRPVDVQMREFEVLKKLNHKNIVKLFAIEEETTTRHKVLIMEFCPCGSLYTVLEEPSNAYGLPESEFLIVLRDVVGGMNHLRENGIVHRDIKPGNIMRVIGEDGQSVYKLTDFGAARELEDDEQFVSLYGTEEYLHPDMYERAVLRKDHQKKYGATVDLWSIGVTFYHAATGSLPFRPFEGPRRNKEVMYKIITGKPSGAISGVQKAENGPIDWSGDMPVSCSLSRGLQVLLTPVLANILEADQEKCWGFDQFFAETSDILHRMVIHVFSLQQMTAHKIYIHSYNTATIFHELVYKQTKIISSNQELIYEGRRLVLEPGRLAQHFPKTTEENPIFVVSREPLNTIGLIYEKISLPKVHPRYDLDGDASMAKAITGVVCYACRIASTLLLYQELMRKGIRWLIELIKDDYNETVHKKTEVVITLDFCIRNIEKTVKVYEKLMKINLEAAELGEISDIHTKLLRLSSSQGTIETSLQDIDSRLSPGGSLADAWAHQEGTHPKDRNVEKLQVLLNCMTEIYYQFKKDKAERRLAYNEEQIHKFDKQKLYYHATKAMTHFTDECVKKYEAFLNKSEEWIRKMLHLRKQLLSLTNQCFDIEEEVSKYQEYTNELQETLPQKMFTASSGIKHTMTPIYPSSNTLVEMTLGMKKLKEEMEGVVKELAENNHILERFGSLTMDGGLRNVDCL

Sequence of MARK2 (human) (Q7KZI7 whole entry, looked up): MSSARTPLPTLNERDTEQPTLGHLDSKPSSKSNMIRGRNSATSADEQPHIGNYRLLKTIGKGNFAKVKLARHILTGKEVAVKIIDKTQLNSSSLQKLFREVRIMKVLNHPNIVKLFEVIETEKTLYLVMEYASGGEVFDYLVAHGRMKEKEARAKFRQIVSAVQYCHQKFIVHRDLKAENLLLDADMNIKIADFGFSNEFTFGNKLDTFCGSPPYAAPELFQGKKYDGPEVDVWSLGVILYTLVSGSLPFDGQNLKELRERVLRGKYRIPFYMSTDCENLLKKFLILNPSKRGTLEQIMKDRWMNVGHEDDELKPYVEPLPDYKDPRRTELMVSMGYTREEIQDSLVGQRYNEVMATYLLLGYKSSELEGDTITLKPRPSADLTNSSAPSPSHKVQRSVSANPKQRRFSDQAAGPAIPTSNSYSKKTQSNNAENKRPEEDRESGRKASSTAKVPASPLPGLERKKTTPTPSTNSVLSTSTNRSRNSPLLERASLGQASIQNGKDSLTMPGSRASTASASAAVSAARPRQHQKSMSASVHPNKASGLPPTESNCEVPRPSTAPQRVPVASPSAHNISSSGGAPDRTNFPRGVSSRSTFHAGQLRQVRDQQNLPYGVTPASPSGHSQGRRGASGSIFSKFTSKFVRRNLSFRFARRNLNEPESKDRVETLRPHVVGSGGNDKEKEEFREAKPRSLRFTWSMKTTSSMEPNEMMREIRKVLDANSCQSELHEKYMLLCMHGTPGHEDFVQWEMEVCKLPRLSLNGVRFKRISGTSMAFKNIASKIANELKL
Sequence of PAK4 (human) (O96013 whole entry, looked up): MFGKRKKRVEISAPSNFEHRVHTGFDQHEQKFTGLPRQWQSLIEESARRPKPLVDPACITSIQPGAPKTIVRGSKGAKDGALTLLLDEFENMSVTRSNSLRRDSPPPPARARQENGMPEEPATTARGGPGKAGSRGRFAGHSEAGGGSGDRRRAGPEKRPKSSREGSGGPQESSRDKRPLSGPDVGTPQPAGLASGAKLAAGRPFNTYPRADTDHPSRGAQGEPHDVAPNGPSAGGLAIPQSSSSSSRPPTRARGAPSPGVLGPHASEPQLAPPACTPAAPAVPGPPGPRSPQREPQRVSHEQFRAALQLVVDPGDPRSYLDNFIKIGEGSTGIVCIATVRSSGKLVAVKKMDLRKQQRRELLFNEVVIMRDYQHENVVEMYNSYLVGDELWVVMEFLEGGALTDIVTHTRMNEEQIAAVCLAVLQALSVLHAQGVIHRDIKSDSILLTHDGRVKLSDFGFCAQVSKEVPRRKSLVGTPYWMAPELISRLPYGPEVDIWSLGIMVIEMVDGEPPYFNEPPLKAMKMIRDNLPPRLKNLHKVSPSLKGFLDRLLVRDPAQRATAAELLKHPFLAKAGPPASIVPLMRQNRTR
Sequence of CHEK1 (human) (O14757 whole entry, looked up): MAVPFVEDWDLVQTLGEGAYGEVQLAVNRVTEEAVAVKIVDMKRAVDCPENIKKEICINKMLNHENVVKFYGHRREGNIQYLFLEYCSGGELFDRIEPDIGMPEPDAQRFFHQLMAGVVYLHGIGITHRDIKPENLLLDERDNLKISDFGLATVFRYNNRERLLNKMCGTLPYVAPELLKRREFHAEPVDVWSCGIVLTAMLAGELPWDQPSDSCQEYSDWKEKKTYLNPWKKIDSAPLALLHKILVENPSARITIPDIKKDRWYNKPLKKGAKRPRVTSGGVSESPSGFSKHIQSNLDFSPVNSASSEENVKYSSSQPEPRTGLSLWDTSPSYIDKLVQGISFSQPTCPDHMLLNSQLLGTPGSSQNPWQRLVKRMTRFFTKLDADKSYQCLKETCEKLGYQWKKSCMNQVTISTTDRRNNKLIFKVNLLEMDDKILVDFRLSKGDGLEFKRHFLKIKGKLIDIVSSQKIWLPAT
Sequence of EPHB3 (human) (P54753 whole entry, looked up): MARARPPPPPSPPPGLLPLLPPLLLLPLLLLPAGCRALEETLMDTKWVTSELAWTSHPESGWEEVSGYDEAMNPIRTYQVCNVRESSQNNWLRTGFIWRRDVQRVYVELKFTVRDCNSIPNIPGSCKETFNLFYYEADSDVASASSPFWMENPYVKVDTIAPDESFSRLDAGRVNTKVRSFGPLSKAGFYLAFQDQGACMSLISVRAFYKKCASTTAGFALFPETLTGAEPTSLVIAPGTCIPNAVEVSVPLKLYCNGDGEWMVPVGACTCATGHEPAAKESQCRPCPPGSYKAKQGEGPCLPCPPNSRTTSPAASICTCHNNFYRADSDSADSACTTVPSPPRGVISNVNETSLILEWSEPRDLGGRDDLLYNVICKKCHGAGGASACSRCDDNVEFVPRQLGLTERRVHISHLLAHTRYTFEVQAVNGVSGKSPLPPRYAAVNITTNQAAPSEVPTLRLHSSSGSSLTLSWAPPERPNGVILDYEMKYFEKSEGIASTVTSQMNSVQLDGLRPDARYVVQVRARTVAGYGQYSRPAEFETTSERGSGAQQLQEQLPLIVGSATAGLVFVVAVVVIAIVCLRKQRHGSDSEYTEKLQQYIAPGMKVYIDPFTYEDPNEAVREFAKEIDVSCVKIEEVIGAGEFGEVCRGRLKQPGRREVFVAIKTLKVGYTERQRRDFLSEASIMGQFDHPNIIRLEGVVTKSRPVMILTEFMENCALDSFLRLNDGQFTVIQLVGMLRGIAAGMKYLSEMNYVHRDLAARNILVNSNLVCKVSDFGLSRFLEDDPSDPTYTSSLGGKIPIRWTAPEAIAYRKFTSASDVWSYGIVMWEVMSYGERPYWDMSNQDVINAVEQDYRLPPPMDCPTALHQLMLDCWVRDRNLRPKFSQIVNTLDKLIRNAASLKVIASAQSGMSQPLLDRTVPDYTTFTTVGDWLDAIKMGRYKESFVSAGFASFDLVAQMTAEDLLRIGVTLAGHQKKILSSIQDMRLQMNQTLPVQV
Sequence of MAP3K11 (human) (Q16584 whole entry, looked up): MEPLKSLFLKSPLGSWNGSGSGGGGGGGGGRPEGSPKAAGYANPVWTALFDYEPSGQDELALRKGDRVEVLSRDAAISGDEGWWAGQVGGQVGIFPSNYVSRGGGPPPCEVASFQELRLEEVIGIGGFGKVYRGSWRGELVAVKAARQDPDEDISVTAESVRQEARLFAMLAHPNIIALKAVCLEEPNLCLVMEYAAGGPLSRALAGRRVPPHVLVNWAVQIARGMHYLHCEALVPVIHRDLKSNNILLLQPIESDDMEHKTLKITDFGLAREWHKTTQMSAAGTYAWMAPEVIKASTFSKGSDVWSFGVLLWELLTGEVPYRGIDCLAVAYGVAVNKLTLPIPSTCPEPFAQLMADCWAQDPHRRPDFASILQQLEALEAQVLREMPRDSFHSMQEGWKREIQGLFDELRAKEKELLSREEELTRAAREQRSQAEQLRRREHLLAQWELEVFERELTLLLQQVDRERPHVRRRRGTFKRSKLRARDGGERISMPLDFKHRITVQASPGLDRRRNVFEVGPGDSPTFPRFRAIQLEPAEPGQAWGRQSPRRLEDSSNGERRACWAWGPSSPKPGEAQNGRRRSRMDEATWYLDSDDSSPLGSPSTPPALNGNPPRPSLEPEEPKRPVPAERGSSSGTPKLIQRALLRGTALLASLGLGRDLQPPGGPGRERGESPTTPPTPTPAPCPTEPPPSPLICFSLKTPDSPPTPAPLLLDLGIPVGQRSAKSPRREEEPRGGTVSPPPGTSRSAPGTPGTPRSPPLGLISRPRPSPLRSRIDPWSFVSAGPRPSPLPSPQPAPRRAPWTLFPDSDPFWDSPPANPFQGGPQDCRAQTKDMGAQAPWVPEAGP
Sequence of MAPK10 (human) (P53779 whole entry, looked up): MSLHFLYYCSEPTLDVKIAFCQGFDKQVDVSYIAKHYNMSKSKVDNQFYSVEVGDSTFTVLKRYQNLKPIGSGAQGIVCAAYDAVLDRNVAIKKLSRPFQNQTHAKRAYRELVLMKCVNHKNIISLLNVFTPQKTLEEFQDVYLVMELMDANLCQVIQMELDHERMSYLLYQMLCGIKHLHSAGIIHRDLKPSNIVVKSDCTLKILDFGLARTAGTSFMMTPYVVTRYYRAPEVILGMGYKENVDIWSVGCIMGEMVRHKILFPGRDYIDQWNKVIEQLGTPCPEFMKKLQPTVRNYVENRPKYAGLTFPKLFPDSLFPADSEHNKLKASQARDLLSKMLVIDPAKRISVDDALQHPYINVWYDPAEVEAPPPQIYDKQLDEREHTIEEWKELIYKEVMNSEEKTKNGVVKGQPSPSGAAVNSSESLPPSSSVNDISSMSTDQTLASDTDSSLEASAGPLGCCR

- residual activity ([1]; compound 0.1 µM): 117%
- residual activity ([1]; compound 1.0 µM): 101%
- residual activity ([1]; compound 10.0 µM): 84%
- residual activity ([2]; compound 0.1 µM): 103%
- residual activity ([2]; compound 1.0 µM): 88%
- residual activity ([2]; compound 10.0 µM): 82%
- residual activity ([3]; compound 0.1 µM): 96%
- residual activity ([3]; compound 1.0 µM): 93%
- residual activity ([3]; compound 10.0 µM): 92%
- residual activity ([4]; compound 0.1 µM): 115%
- residual activity ([4]; compound 1.0 µM): 109%
- residual activity ([4]; compound 10.0 µM): 101%
- residual activity ([5]; compound 0.1 µM): 118%
- residual activity ([5]; compound 1.0 µM): 112%
- residual activity ([5]; compound 10.0 µM): 110%
- residual activity ([6]; compound 0.1 µM): 109%
- residual activity ([6]; compound 1.0 µM): 98%
- residual activity ([6]; compound 10.0 µM): 70%
- residual activity ([7]; compound 0.1 µM): 113%
- residual activity ([7]; compound 1.0 µM): 106%
- residual activity ([7]; compound 10.0 µM): 106%
- residual activity ([8]; compound 1.0 µM): 102%
- residual activity ([8]; compound 10.0 µM): 58%
- residual activity ([9]; compound 1.0 µM): 97%
- residual activity ([9]; compound 10.0 µM): 40%
- residual activity ([10]; compound 0.1 µM): 112%
- residual activity ([10]; compound 1.0 µM): 96%
- residual activity ([10]; compound 10.0 µM): 95%
- residual activity ([11]; compound 0.1 µM): 90%
- residual activity ([11]; compound 1.0 µM): 95%
- residual activity ([11]; compound 10.0 µM): 76%
- residual activity ([12]; compound 1.0 µM): 95%
- residual activity ([13]; compound 0.1 µM): 109%
- residual activity ([13]; compound 1.0 µM): 89%
- residual activity ([13]; compound 10.0 µM): 19%
- residual activity ([14]; compound 0.1 µM): 99%
- residual activity ([14]; compound 1.0 µM): 103%
- residual activity ([14]; compound 10.0 µM): 78%
- residual activity ([15]; compound 0.1 µM): 117%
- residual activity ([15]; compound 1.0 µM): 106%
- residual activity ([15]; compound 10.0 µM): 116%
- residual activity ([16]; compound 0.1 µM): 114%
- residual activity ([16]; compound 1.0 µM): 102%
- residual activity ([16]; compound 10.0 µM): 73%
- residual activity ([17]; compound 0.1 µM): 108%
- residual activity ([17]; compound 1.0 µM): 101%
- residual activity ([17]; compound 10.0 µM): 81%
- residual activity ([18]; compound 0.1 µM): 101%
- residual activity ([18]; compound 1.0 µM): 97%
- residual activity ([18]; compound 10.0 µM): 69%
- residual activity ([19]; compound 10.0 µM): 106%
- residual activity ([20]; compound 0.1 µM): 102%
- residual activity ([20]; compound 1.0 µM): 103%
- residual activity ([20]; compound 10.0 µM): 93%
- residual activity ([21]; compound 0.1 µM): 98%
- residual activity ([21]; compound 1.0 µM): 88%
- residual activity ([21]; compound 10.0 µM): 85%
- residual activity ([22]; compound 0.1 µM): 96%
- residual activity ([22]; compound 1.0 µM): 97%
- residual activity ([22]; compound 10.0 µM): 68%
- residual activity ([23]; compound 0.1 µM): 109%
- residual activity ([23]; compound 1.0 µM): 97%
- residual activity ([23]; compound 10.0 µM): 98%
- residual activity ([24]; compound 0.1 µM): 109%
- residual activity ([24]; compound 1.0 µM): 99%
- residual activity ([24]; compound 10.0 µM): 64%
- residual activity ([25]; compound 0.1 µM): 99%
- residual activity ([25]; compound 1.0 µM): 110%
- residual activity ([25]; compound 10.0 µM): 111%
- residual activity ([26]; compound 0.1 µM): 113%
- residual activity ([26]; compound 1.0 µM): 109%
- residual activity ([26]; compound 10.0 µM): 70%
- residual activity ([27]; compound 1.0 µM): 101%
- residual activity ([27]; compound 10.0 µM): 91%
- residual activity ([28]; compound 0.1 µM): 116%
- residual activity ([28]; compound 1.0 µM): 113%
- residual activity ([28]; compound 10.0 µM): 95%
- residual activity ([29]; compound 0.1 µM): 120%
- residual activity ([29]; compound 1.0 µM): 104%
- residual activity ([29]; compound 10.0 µM): 102%
- residual activity ([30]; compound 0.1 µM): 104%
- residual activity ([30]; compound 1.0 µM): 79%
- residual activity ([30]; compound 10.0 µM): 50%
- residual activity ([31]; compound 0.1 µM): 111%
- residual activity ([31]; compound 1.0 µM): 93%
- residual activity ([31]; compound 10.0 µM): 57%
- residual activity ([32]; compound 0.1 µM): 110%
- residual activity ([32]; compound 1.0 µM): 116%
- residual activity ([32]; compound 10.0 µM): 100%
- residual activity ([33]; compound 1.0 µM): 109%
- residual activity ([33]; compound 10.0 µM): 112%
- residual activity ([34]; compound 0.1 µM): 111%
- residual activity ([34]; compound 10.0 µM): 40%
- residual activity ([35]; compound 0.1 µM): 112%
- residual activity ([35]; compound 1.0 µM): 51%
- residual activity ([35]; compound 10.0 µM): 9%
- residual activity ([36]; compound 0.1 µM): 110%
- residual activity ([36]; compound 1.0 µM): 87%
- residual activity ([36]; compound 10.0 µM): 96%
SMILES: Cc1ccc(-c2ccc3c(ccc4sc5c(c43)NC[C@@H](C)NC5=O)n2)cn1

- residual activity ([1]; compound 1.0 µM): 52%
- residual activity ([1]; compound 10.0 µM): 32%
- residual activity ([2]; compound 1.0 µM): 92%
- residual activity ([2]; compound 10.0 µM): 32%
- residual activity ([3]; compound 1.0 µM): 87%
- residual activity ([3]; compound 10.0 µM): 50%
- residual activity ([4]; compound 1.0 µM): 91%
- residual activity ([4]; compound 10.0 µM): 93%
- residual activity ([5]; compound 1.0 µM): 31%
- residual activity ([5]; compound 10.0 µM): 6%
- residual activity ([6]; compound 1.0 µM): 111%
- residual activity ([6]; compound 10.0 µM): 102%
- residual activity ([7]; compound 1.0 µM): 100%
- residual activity ([7]; compound 10.0 µM): 90%
- residual activity ([8]; compound 1.0 µM): 13%
- residual activity ([8]; compound 10.0 µM): 2%
- residual activity ([9]; compound 1.0 µM): 115%
- residual activity ([9]; compound 10.0 µM): 93%
- residual activity ([10]; compound 1.0 µM): 85%
- residual activity ([10]; compound 10.0 µM): 72%
- residual activity ([11]; compound 1.0 µM): 107%
- residual activity ([11]; compound 10.0 µM): 86%
- residual activity ([12]; compound 1.0 µM): 108%
- residual activity ([12]; compound 10.0 µM): 101%
- residual activity ([13]; compound 1.0 µM): 88%
- residual activity ([13]; compound 10.0 µM): 28%
- residual activity ([14]; compound 1.0 µM): 97%
- residual activity ([14]; compound 10.0 µM): 76%
- residual activity ([15]; compound 1.0 µM): 107%
- residual activity ([15]; compound 10.0 µM): 93%
- residual activity ([16]; compound 1.0 µM): 23%
- residual activity ([16]; compound 10.0 µM): 5%
- residual activity ([17]; compound 1.0 µM): 73%
- residual activity ([17]; compound 10.0 µM): 65%
- residual activity ([18]; compound 1.0 µM): 95%
- residual activity ([18]; compound 10.0 µM): 75%
- residual activity ([19]; compound 1.0 µM): 101%
- residual activity ([19]; compound 10.0 µM): 94%
- residual activity ([20]; compound 1.0 µM): 86%
- residual activity ([20]; compound 10.0 µM): 86%
- residual activity ([21]; compound 10.0 µM): 83%
- residual activity ([22]; compound 1.0 µM): 74%
- residual activity ([22]; compound 10.0 µM): 27%
- residual activity ([23]; compound 1.0 µM): 102%
- residual activity ([23]; compound 10.0 µM): 87%
- residual activity ([24]; compound 1.0 µM): 55%
- residual activity ([24]; compound 10.0 µM): 18%
- residual activity ([25]; compound 1.0 µM): 110%
- residual activity ([25]; compound 10.0 µM): 100%
- residual activity ([26]; compound 1.0 µM): 17%
- residual activity ([26]; compound 10.0 µM): 2%
- residual activity ([27]; compound 1.0 µM): 86%
- residual activity ([27]; compound 10.0 µM): 74%
- residual activity ([28]; compound 1.0 µM): 98%
- residual activity ([28]; compound 10.0 µM): 73%
- residual activity ([29]; compound 1.0 µM): 84%
- residual activity ([29]; compound 10.0 µM): 50%
- residual activity ([30]; compound 1.0 µM): 34%
- residual activity ([30]; compound 10.0 µM): 9%
- residual activity ([31]; compound 1.0 µM): 102%
- residual activity ([31]; compound 10.0 µM): 79%
- residual activity ([32]; compound 1.0 µM): 87%
- residual activity ([32]; compound 10.0 µM): 83%
- residual activity ([33]; compound 1.0 µM): 44%
- residual activity ([33]; compound 10.0 µM): 12%
- residual activity ([34]; compound 1.0 µM): 96%
- residual activity ([34]; compound 10.0 µM): 58%
- residual activity ([35]; compound 1.0 µM): 12%
- residual activity ([35]; compound 10.0 µM): 2%
- residual activity ([36]; compound 1.0 µM): 62%
- residual activity ([36]; compound 10.0 µM): 17%
SMILES: CCNc1nc(Nc2cc(F)c(C(=O)N3CCOCC3)cc2OC)ncc1C(F)(F)F
